According to PMC10923054, “Antiplasmodial peptaibols act through membrane directed mechanisms” (Cell Chemical Biology, 2024):
Square brackets hold non-standard residues; d marks the D form. Peptide text beside a SMILES is read from it. Phe(ol) = N[C@H](CO)Cc1ccccc1; Leu(ol) = CC(C)C[C@H](N)CO; dIva = CC[C@@](C)(N)C(=O)O; Aib = CC(C)(N)C(=O)O

Columns and labels:
P. falciparum Dd2 = test: Phenotypic screen: asexual blood stage EC50 determination (SYBR Green I); assay type: cell-based; conditions: asynchronous culture, 1% parasitemia, 1% hematocrit, 72 h, SYBR Green I; mean ± SEM, biological triplicate
Protocol: Asexual blood stage parasites grown in the Chakrabarti laboratory were cultured based on a protocol by Trager and Jensen[57] with some modifications.[35] Culture was maintained at 4% hematocrit with human A+ whole blood obtained from the Florida OneBlood, in RPMI 1640 supplemented with 25 mM HEPES pH 7.4, 26 mM NaHCO3, 2% dextrose, 15 mg/L hypoxanthine, 25 mg/L gentamycin, and 0.5% Albumax II. Incubator conditions remained at 37°C and 5% CO2, 5% O2, 90% N2, or 95% air. For comparison screening using serum vs Albumax II, culture media was changed from RPMI with 0.5% Albumax II to RPMI with 10% human serum and maintained for a minimum of 2 weeks prior to assay use.
Inhibitor EC50 determination in 3D7 and Dd2 was performed as discussed in,[35] based on established protocols.[60] Assays utilized asynchronous culture at 1% parasitemia, 1% hematocrit. Culture was incubated with compound dilutions for 72 h followed by freezing at −80°C to promote lysis, then thawing and incubation for 45 min–1 h with 1× SYBR Green I in a lysis buffer (20 mM Tris-HCL, 0.08% saponin, 5 mM EDTA, and 0.8% Triton X-100). Fluorescence was read 485 nm excitation, 530 nm emission on a Synergy Neo2 multimode reader (BioTek Winsooki, VT) and EC50 curves were generated using CDD Vault (https://www.collaborativedrug.com/).

Dd2 = test: Cross resistance screening (1536-well SYBR Green I), parental line; assay type: cell-based, P. falciparum; conditions: Winzeler laboratory cross resistance screen, 0.3% parasitemia, 2.5% hematocrit, 72 h, mean ± SEM of 3 biological replicates
Protocol: Parasites grown in the Winzeler laboratory for screening and drug selections were maintained in RPMI 1640 medium supplemented with 0.25% Albumax I, 26 mM sodium bicarbonate, 0.1 mM hypoxanthine, and […] gentamicin. Human O+ whole blood obtained from the Blood Bank of The Scripps Research Institute was used for cultivation (human subjects IRB number: 125933). Blood-stage cultures were kept at 37°C with 5% CO2, 3% O2, and 92% N2. Monitoring of parasitemia and parasite morphology was performed using microscopic evaluation of thin blood smears that were first fixed with methanol, and then stained with Giemsa.
Cross resistance screening was performed with 0.3% parasitemia, 2.5% hematocrit, dispensed into 1536-well black, clear bottom plates with pre-spotted compound using a MultiFloTM Microplate dispenser (BioTek) at a volume of 8 μL/well. Plates where then incubated at 37°C for 72 h, after which 10× SYBR Green I (Invitrogen) in a lysis buffer (20 mM Tris/HCl, 5 mM EDTA, 0.16% (w/v) saponin, 1.6% (v/v) […]) was then added using a MultiFloTM Microplate dispenser (BioTek) at a volume of 2 μL/well. After 24 h incubation at room temperature, viability was measured via fluorescence using the EnVision® Multilabel Reader (PerkinElmer) (485 nm excitation, 530 nm emission). IC50 values were determined in CDD vault (https://www.collaborativedrug.com/).

HepG2-A16-CD81 cells = assay type: cell-based, H. sapiens; conditions: HepG2-A16-CD81 without sporozoites, CellTiterGlo; up to 50 μM; read-out: HepG2 EC50 (liver stage counter screen)
Protocol: The liver stage was performed as discussed in.[61] Liver-stage inhibitory activity was evaluated in HepG2-A16-CD81 cells and using P. berghei sporozoites (P. berghei ANKA GFP-Luc-SMcon) freshly obtained by dissecting salivary glands of infected A. stephensi mosquitoes. Cells were first seeded in 1536-well plates (Greiner Bio) containing 50 nL of test and control compounds dissolved in DMSO and incubated for 24 h. Sporozoites were then added to each well at a density of 1 × 10^3 cells per well and kept at 37°C for 48 h. Afterwards, luciferin reagent (Promega BrightGlo) was added to each well, and luciferase activity was detected using a Perkin Elmer Envision plate. As a counter screen, HepG2-A16-CD81 cells were seeded as above and exposed to drug in the absence of sporozoites. Viability was evaluated by adding Promega CellTiterGlo® followed by luminescence measurement using a Perkin Elmer Envision plate reader. IC50 values were determined using CDD vault (https://www.collaborativedrug.com/).

[1] = system: P. falciparum 3D7 transcripts; test: Real-time quantitative PCR validation; assay type: cell-based; conditions: normalized to serine-tRNA ligase; 3 biological replicates
Protocol: For RT-qPCR validation, total RNA was extracted as previously described from vehicle and HZ NPDG-I treated samples collected for the RNASeq analysis. A total of 500 ng of RNA from each sample was reverse transcribed into cDNA using the SuperScript First-Strand Synthesis System for RT-PCR (Invitrogen, Waltham, MA) with 100 ng of random hexamers. Synthesized cDNA from each of the 3 biological replicates was tested using Select Master Mix (Life Technologies, Carlsbad, CA) with 400 nM of forward and reverse primers using a QuantStudio 7 Flex qPCR machine (Thermo Fisher, Waltham, MA). SYBR fluorescence was normalized to passive reference dye ROX. Ct values were normalized using the […] method by normalizing to housekeeping gene serine-tRNA ligase (PF3D7_0717700) and then normalizing between the treated and untreated controls. PCR parameters included 50°C for 2 min, 95°C for 10 min, followed by 40 cycles of 95°C for 15 s, 55°C for 30 seconds, and 60°C for 30 seconds. Primer pair sequences are listed in full in Table S5.

SMILES | EC50 (P. falciparum Dd2) | EC50 (Dd2) | EC50 (HepG2-A16-CD81 cells) | RT-qPCR mean fold change, F3D7_0106100 [1] | RT-qPCR mean fold change, MSTRG.194.1 [1] | RT-qPCR mean fold change, MSTRG.363.2 [1] | RT-qPCR mean fold change, PF3D7_0519200 [1] | RT-qPCR mean fold change, PF37D_1419800 [1]
CC(=O)NC(C)(C)C(=O)N1CCC[C@H]1C(=O)NC(C)(C)C(=O)N[C@@H](C)C(=O)NC(C)(C)C(=O)N[C@@H](C)C(=O)N[C@@H](CCC(N)=O)C(=O)NC(C)(C)C(=O)N[C@H](C(=O)NC(C)(C)C(=O)NCC(=O)N[C@@H](CC(C)C)C(=O)NC(C)(C)C(=O)N1CCC[C@H]1C(=O)N[C@H](C(=O)NC(C)(C)C(=O)NC(C)(C)C(=O)N[C@@H](CCC(=O)O)C(=O)N[C@@H](CCC(N)=O)C(=O)N[C@H](CO)Cc1ccccc1)C(C)C)C(C)C [Alamethicin, reference compound] (Ac-[Aib]P[Aib]A[Aib]AQ[Aib]V[Aib]GL[Aib]PV[Aib][Aib]EQ[Phe(ol)]; N-terminus assumed) | 630 ± 50 nM | – | – | – | – | – | – | –
CC[C@H](C)[C@H](NC(=O)[C@H](CC(C)C)NC(=O)[C@H](CCC(N)=O)NC(=O)[C@@](C)(CC)NC(C)=O)C(=O)NC(C)(C)C(=O)N1CCC[C@H]1C(=O)N[C@](C)(CC)C(=O)N[C@@H](CC(C)C)C(=O)NC(C)(C)C(=O)N1CCC[C@H]1C(=O)N[C@H](CO)CC(C)C [HZ NPDG-I, harzianin NPDG I] (Ac-[dIva]QLI[Aib]P[dIva]L[Aib]P[Leu(ol)]) | – | 13 ± 6 nM | > 50000 nM | −5.86 | 1.52 | 2.56 | −22.26 | −7.27
